Results: PMC12680861, “Comparative analysis of LJ-4378 and tirzepatide in mouse models of obesity and weight regain” (Archives of Pharmacal Research, 2025)

Legend:
Type in all cases: in vivo, C57BL/6 J male mice
HFD-fed mice [1] = assay: Diet-induced obesity model: body weight, body composition, adipose weights, micro-CT; settings: for fat mass reduction relative to HFD controls / reduction in total body weight compared to the HFD control group: LJ-4378 1 mg/kg/day I.P., TZP 10 nmol/kg/day S.C.
Protocol: Animal experiments were conducted in accordance with the guidelines approved by the Institutional Animal Care and Use Committees (IACUC) of Seoul National University (SNU-230113–5-2, SNU-250410–1, and SNU-250811–5). C57BL/6 J male mice and Sprague–Dawley (SD) male rats were raised in a controlled animal facility with a temperature of 22 ± 1 °C and subjected to a 12-h light/12-h dark cycle. Mice were randomly assigned to experimental groups and fed either a normal chow diet (NCD, protein: 24.52% calories, carbohydrates: 63.07% calories, fat: 12.41% calories, 38,057, Purina Lab, Seongnam, Republic of Korea) or a high-fat diet (HFD, protein: 20% kcal, carbohydrate: 20% kcal, fat: 60% kcal, New Brunswick, D12492, Research Diets, NJ, USA) for the specified durations, according to group assignment. Both diet and water were provided ad libitum. SD rats (230–240 g) were provided standard rat chow and had free access to water. Prior to the experiment, the rats underwent a 12-h fasting period.
(§1) To evaluate the anti-obesity effect in vivo, mice fed either NCD or HFD for 10 weeks were subsequently treated for up to 4 weeks. To control for injection route-related variables, all mice received both intraperitoneal (I.P.) and subcutaneous (S.C.) injections. The administration were as follows: LJ-4378 treated mice received LJ-4378, which was synthesized in our laboratory at > 95% purity (1 mg/kg/day, I.P.) (Hou et al. [2010]; Kim et al. [2022]) along with the vehicle for TZP (40 mM Tris–HCl, pH 8, S.C.); TZP treated mice received TZP (Samms et al. [2021]; Kim et al. [2022]) (LY3298176, MedChemExpress, Monmouth Junction, NJ, USA) (10 nmol/kg/day, S.C.) along with the vehicle for LJ-4378 (0.2% DMSO, I.P.); vehicle control mice received both vehicles (0.2% DMSO, I.P. and 40 mM Tris–HCl, pH 8, S.C.)
(§2) Body composition and micro-CT analysis were performed after the treatment with vehicle, LJ-4378, or TZP for the indicated duration in HFD-fed mice and WR mice.
(§3) A nuclear magnetic resonance (NMR) technology system with EchoMRI-700 (Echo Medical Systems, […]) was used to analyze body composition.
(§4) To assess the abdominal fat volume, we employed the Quantum GX2 micro-CT imaging system (PerkinElmer, Waltham, MA, USA). Mice were anesthetized with isoflurane and positioned on the micro-CT bed for imaging of the abdominal region, defined from the proximal end of the L1 vertebra to the distal end of the L5 vertebra. Imaging was performed at 90 kV/88 µA with a field of view of 72 mm, a pixel size of 90 µm, and a 2-min acquisition time at standard resolution. Visceral, subcutaneous, and total abdominal fat volumes were quantified using AnalyzeDirect software (ver. 12.0, Overland Park, KS, USA).

HFD-fed mice [2] = assay: Glucose tolerance test and fasting glucose in HFD-fed mice; settings: for fasting glucose levels: 12-h fast; for glucose tolerance (intraperitoneal glucose tolerance test): 14 days treatment
Protocol: The glucose tolerance test was conducted on mice fasted for 12 h with ad libitum access to water. Mice were intraperitoneally injected with 20% D-( +)-glucose (2 g/kg body weight, #49139, Sigma), and blood glucose levels were measured at each time point using a Gluco Doctor Top meter and strip (Allmedicus, South Korea).

HFD-fed mice [3] = assay: Indirect calorimetry and food intake in HFD-fed mice; settings: for energy expenditure adjusted for body weight and lean body mass (ANCOVA) / food intake (indirect calorimetry): HFD-fed mice; for VO2, VCO2 and energy expenditure: relative to HFD controls, last 2 days of 14-day treatment
Protocol: as §1
(§5) To assess post-treatment weight rebound (WR), the mice previously treated with vehicle, LJ-4378, or TZP were maintained on HFD for an additional 4 weeks following treatment cessation. Treatment protocols for the WR groups were identical to those of the HFD groups. In total, nine experimental groups were established: NCD + CTL, NCD + LJ, NCD + TZP; HFD + CTL, HFD + LJ, HFD + TZP; and WR + CTL, WR + LJ, WR + TZP. The volume of oxygen consumed (VO2), carbon dioxide produced (VCO2), respiratory exchange ratio (RER), energy expenditure, activity, and food intake were measured with PhenoMaster (TSE Systems, Bad Homburg, Germany). Indirect calorimetry was performed under controlled conditions, with a stable ambient temperature of 24 °C and a 12 h light/12-h dark cycle. Mice fed HFD were administered vehicle, LJ-4378, or TZP for 14 days, and the last 2 days of treatment were conducted during indirect calorimetry analysis. The WR model was examined by indirect calorimetry after 2 and 4 weeks of the weight regaining phase.

HFD-fed mice [4] = assay: Immunoblot of lipolytic, thermogenic and mitochondrial proteins in BAT and iWAT; serum FFA; settings: for P-HSL, P-CREB, UCP1 and COXIV levels in BAT: western blot
Protocol: as §1
Serum free fatty acid (FFA) levels were quantification using HR Series NEFA-HR (2) (Color Reagent A (#999–34691), Solvent A (#995–34791), Color Reagent B (#991–34891), Solvent B (#993–35191), and NEFA Standard Solution (#276–76491) (FUJIFILM Wako Pure Chemicals, Osaka, Japan), following the manufacturer’s instruction.
For protein extraction, we utilized PRO-RERP Protein Extraction Solution (17081, iNtRON Biotechnology, Gyeonggi-do, Korea), supplemented with […] […] Protein concentrations were determined using the Pierce BCA protein assay Kit (#23227, Thermo Fisher, Waltham, Massachusetts, USA) by measuring absorbance at 562 nm with a MultiSkan GO spectrophotometer (Thermo Fisher). The quantified proteins were loaded and separated in 12% SDS-PAGE gels and transferred to polyvinylidene difluoride (PVDF) membranes (Bio-Rad, Hercules, CA, USA). […] After secondary antibody incubation, membranes were washed 3 times with TBST and detected with the Fusion Solo chemiluminescence imaging system (Vilber Lourmat, France). EvolutionCapt (version 17.03) software and the ImageJ (National Institutes of Health, Bethesda, MD, USA) program were used for analysis and to quantify the protein level.

WR mice = assay: Weight rebound (WR) model: body weight, food intake, adiposity after treatment cessation; settings: for body weight after treatment cessation: 4 weeks post-cessation on HFD; for food intake after withdrawal: 16 days after cessation; for body weight regained over 4 weeks as a percentage of the initial weight loss: WR groups, 4 weeks after 14-day treatment; for food intake during the 14-day treatment: measured every 2 days
Description: as §5
Additionally, food consumption was measured every 2 days during the 14-day treatment period and for an additional 16 days post-administration.
as §2, §3, §4

[5] = 4 weeks after treatment cessation

| Compound | fat mass reduction relative to HFD controls (HFD-fed mice [1]; 14 days) [%] | reduction in total body weight compared to the HFD control group (HFD-fed mice [1]; 14 days) [%] | iWAT and gWAT mass (HFD-fed mice [1]; HFD-fed mice, 14 days) | visceral and subcutaneous abdominal fat (micro-CT) (HFD-fed mice [1]; HFD-fed mice, 14 days) | fasting glucose levels (HFD-fed mice [2]) | glucose tolerance (intraperitoneal glucose tolerance test) (HFD-fed mice [2]) | energy expenditure adjusted for body weight and lean body mass (ANCOVA) (HFD-fed mice [3]) | food intake (indirect calorimetry) (HFD-fed mice [3]) | VO2, VCO2 and energy expenditure (HFD-fed mice [3]) | P-HSL, P-CREB, UCP1 and COXIV levels in BAT (HFD-fed mice [4]) | body weight after treatment cessation (WR mice) | food intake after withdrawal (WR mice) | body weight regained over 4 weeks as a percentage of the initial weight loss (WR mice) [%] | food intake during the 14-day treatment (WR mice) | also measured |
| --- | --- | --- | --- | --- | --- | --- | --- | --- | --- | --- | --- | --- | --- | --- | --- |
| Tirzepatide [TZP, reference compound] | 32.4 | 18.63 | significantly reduced | reduction | significantly lower | markedly enhanced | not significant when LBM was used as the covariate | reduced food consumption | significantly increased | elevated levels | rapid weight regain | sharp rebound in food consumption | 127 | significantly suppressed food intake | fat ratio (% of the total body weight) (HFD-fed mice [1]; 2 weeks of TZP treatment, HFD-fed mice): 27.4%; brown adipose tissue (BAT) mass (HFD-fed mice [1]; HFD-fed mice, 14 days): reduced |
| CCCCC#Cc1nc(N)c2ncn([C@@H]3SC[C@@H](O)[C@H]3O)c2n1 [LJ-4378] | 30.7 | 9.04 | significantly reduced | reduction | significantly lower | markedly enhanced | consistently increased energy expenditure | did not affect the feeding behavior | significantly increased | elevated levels | maintained a relatively low body weight | did not alter food intake during or after treatment | 88 | did not alter food intake during or after treatment | fat ratio (% of the total body weight) (HFD-fed mice [1]; 4 weeks of LJ-4378, HFD-fed mice): 20.1%; reduction in body weight (HFD-fed mice [1]; four weeks of LJ-4378 administration, HFD-fed mice): 15.5%; UCP1 expression in BAT, LJ-4378 versus TZP (HFD-fed mice [4]): more strongly induced; gWAT and visceral abdominal fat, compared with the TZP group (WR mice; [5]): reduction; whole-body fat ratio, LJ-4378 versus TZP (WR mice; [5]): significantly lower |
